Reference: patent publication US7772274B1, “Docetaxel formulations with lipoic acid” (Scidose, LLC, priority 2009, dated 2010)
Where two headings read alike, the source gives them in different places.

Experiment: Solubility of docetaxel in various solvents
Format: physicochemical
Settings: for solubility: read-out: Solubility of Docetaxel, Concentration
Method: In consideration of the severe side effects associated with the use of polysorbates, such as TWEEN 80®, as solubilizers of docetaxel, solubility studies were conducted to determine non-toxic solvents that can effectively dissolve docetaxel.
Solubility of docetaxel was assessed using several different solvents that are well-tolerated in subjects, as well as polysorbates for comparison.

CC(=O)O[C@@]12CO[C@@H]1C[C@H](O)[C@@]1(C)C(=O)[C@H](O)C3=C(C)[C@@H](OC(=O)[C@H](O)[C@@H](NC(=O)OC(C)(C)C)c4ccccc4)C[C@@](O)([C@@H](OC(=O)c4ccccc4)[C@H]21)C3(C)C [Docetaxel, (2R,3S)—N-carboxy-3-phenylisoserine, N-tert-butyl ester, 13-ester with 5β-20-epoxy-1,2α,4,7β,10β,13α-hexahydroxytax-11-en-9-one 4-acetate 2-benzoate, trihydrate]
solubility (oil or lipid, solvent LABROFAC™ (Capric triglyceride PEG 4 ester Macrogol 200)): 35 mg/mL | solubility (oil or lipid, solvent MAISINE™ 35-1 (Glycerol mono linoleate)): 10 mg/mL | solubility (oil or lipid, solvent PECEOL® (Glycerol mono Oleate 40)): 7 mg/mL | solubility (organic solvent or mixture, solvent 1-lactic acid): 6 mg/mL | solubility (organic solvent or mixture, solvent 2% Lutrol in PEG 400): 15 mg/mL | solubility (organic solvent or mixture, solvent 50% PEG 400/50% PG): 15 mg/mL | solubility (organic solvent or mixture, solvent Acetic acid): 60 mg/mL | solubility (organic solvent or mixture, solvent Benzyl alcohol): 90 mg/mL | solubility (organic solvent or mixture, solvent Benzyl benzoate): 13 mg/mL | solubility (organic solvent or mixture, solvent Ethanol): 120 mg/mL | solubility (organic solvent or mixture, solvent Glycerol): 1.65 mg/mL | solubility (organic solvent or mixture, solvent Glycofurol): 200 mg/mL | solubility (organic solvent or mixture, solvent N-Methyl 2-Pyrrolidone): 17.6 mg/mL | solubility (organic solvent or mixture, solvent PEG 400): 10 mg/mL | solubility (organic solvent or mixture, solvent Propylene Glycol): 10 mg/mL | solubility (organic solvent or mixture, solvent Span 80): 3.5 mg/mL | solubility (organic solvent or mixture, solvent TPGS 1000): 50 mg/mL | solubility (organic solvent or mixture, solvent TWEEN 20®): 90 mg/mL | solubility (organic solvent or mixture, solvent TWEEN 80®): 60 mg/mL | Solubility of Docetaxel, Concentration (solvent Glycofurol): most soluble
